Results published in article PMC7287649, “Hypoxia-Activated Prodrug Derivatives of Carbonic Anhydrase Inhibitors in Benzenesulfonamide Series: Synthesis and Biological Evaluation” (Molecules, 2020).
Where “and” joins values, the source holds several entries; their conditions need not be identical. Equal entries are not always repeated. Entries after “also recorded” stand apart in the source; their conditions may differ. Where two headings read alike, the source gives them in different places.

Key:
[1] = biological target: hCA IX (Homo sapiens, UniProt Q16790); assay: stopped flow CO2 hydrase assay, hCA IX; conditions: for Selectivity Ratio KI hCA II/KI hCA IX: hCA II over hCA IX
Method: (§8) An Sx.18Mv-R Applied Photophysics (Oxford, UK) stopped-flow instrument was used for assaying the CA catalyzed CO2 hydration activity. […] In particular, CO2 was bubbled in distilled deionized water for 30 min so that the water was saturated (the concentration at a specific temperature is known from literature). In addition, a CO2 assay kit (from Merck, Darmstadt, Germany) was used to measure the concentration in variously diluted solutions obtained from the saturated one (which was kept at the same temperature and a constant bubbling during the experiments). […] The uncatalyzed rates were determined in the same manner and subtracted from the total observed rates. Stock solutions of inhibitor (0.1 mM) were prepared in distilled deionized water and dilutions up to 0.01 nM were done thereafter with distilled deionized water. Inhibitor and enzyme solutions were pre-incubated together for 15 min–2 h (or longer, i.e., 4–6 h) at room temperature (at 4 °C for the incubation periods longer than 15 min) prior to assay, in order to allow for the formation of the EI complex. The inhibition constants were obtained by non-linear least-squares methods using PRISM 3 and the Cheng–Prusoff equation, as reported earlier [38, 39], and represent the mean from at least three different determinations. hCA I was purchased by Merck (Darmstadt, Germany) and used without further purification, whereas all the other hCA isoforms were recombinant ones obtained in-house as reported earlier [40].

[2] = test system: zebrafish larvae; assay: phenotypic analysis of zebrafish larvae; type: in vivo; conditions: for adverse effects on observable phenotypic parameters of the larvae: 20 μM–2 mM, 5 days post exposure; for swim bladder development: at 5 days; for phenotypic defects: at lower concentrations compared to 1b
Method: (§1) The hypoxia-activated prodrugs were screened for their toxicity using 24-h post-fertilization zebrafish embryos as described earlier. The compounds were either dissolved in Embryonic medium (5.0 mM NaCl, 0.17 mM KCl, 0.33 mM CaCl2, 0.33 mM MgSO4, and 0.1% w/v Methylene Blue (Sigma-Aldrich, Darmstadt, Germany) or in dimethyl sulfoxide (DMSO) (Sigma-Aldrich, St. Louis, MO, USA) to prepare 100 mM stock solutions. Before the start of each experiment, the series of dilutions were made from the above stock in the embryonic medium.
(§2) The wild-type adult zebrafish (AB strains) were maintained at 28.5 °C in an incubator [35]. In each breeding tank, about embryos 3–5 pairs of male and female fish were set up overnight for collecting the embryos. The following morning, 1–2-h post-fertilization (hpf) embryos were collected in a sieve and rinsed with embryonic medium and kept the collected embryos in an incubator at 28.5 °C overnight. The toxicity evaluation studies of the compounds were performed using the fish that were 24-hpf. All the zebrafish experiments were performed at the zebrafish core facility, Tampere University, Finland, and according to the protocol used in our laboratory.
After exposure to the prodrugs, we evaluated the effects of these compound on the zebrafish larvae by analyzing the following eight phenotypic parameters: (1) mortality, (2) hatching (3) edema (4) swimming pattern, (5) yolk sack utilization, (6) heartbeat, (7) body shape, and (8) swim bladder development. The images of the developing larvae were taken using a Lumar V1.12 fluorescence microscope (Carl Zeiss MicroImaging GmbH, Göttingen, Germany) attached to a camera with a 1.5 lens (Carl Zeiss MicroImaging GmbH, Göttingen, Germany). The images were analyzed with AxioVision software versions 4.7 and 4.8 as described in our standard protocol for the assessment of the toxicity and safety of chemical compounds.

[3] = biological target: hCA I (Homo sapiens, UniProt P00915); assay: stopped flow CO2 hydrase assay, hCA I
hCA I, sequence (P00915 whole entry): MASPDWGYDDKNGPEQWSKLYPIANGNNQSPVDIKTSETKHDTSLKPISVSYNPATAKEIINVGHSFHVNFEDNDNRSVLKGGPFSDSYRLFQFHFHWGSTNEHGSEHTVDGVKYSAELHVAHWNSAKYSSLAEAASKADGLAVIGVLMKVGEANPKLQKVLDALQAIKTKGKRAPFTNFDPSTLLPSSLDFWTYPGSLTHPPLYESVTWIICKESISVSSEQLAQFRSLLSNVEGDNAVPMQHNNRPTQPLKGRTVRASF
Method: as §8

[4] = test system: zebrafish larvae; assay: swim pattern analysis of zebrafish larvae; type: in vivo; conditions: 160 µM (concentration that did not induce phenotypic defects), end of 5 days of exposure
Method: The swim pattern of the zebrafish larvae was studied after 5 days of exposure to these compounds. For the analyses of swim pattern, about 15–20 zebrafish larvae after 5 days of exposure to the compounds were placed in a 35 mm × 15 mm petri dish containing embryonic medium, and the larvae were allowed to settle in the petri dish for 1 min. The movement of the zebrafish larvae was observed under the microscope for 1 min. […] The swim patterns were compared with the control group zebrafish larvae that were not treated with any inhibitor.

[5] = test system: HCT116 cells; assay: alamarBlue cell viability assay, HCT116; type: cell-based, human; conditions: for IC50: 2 h exposure, 72 h regrowth
Method: (§3) Human colorectal HCT116 and HT29 carcinoma cells were cultured in Dulbecco’s Modified Eagle Medium (DMEM, Lonza) supplemented with 10% fetal bovine serum and 1% PenStrep. Cells were exposed to anoxic conditions for 24 h in a hypoxic chamber (MACS VA500 microaerophilic workstation, Don Whitley Scientific, Bingley, UK) with an atmosphere consisting of ≤0.02% O2, 5% CO2 and residual N2. Normoxic cells were grown in regular incubators with 21% O2, 5% CO2 at 37 °C.
(§4) The cytotoxic efficacy of the bio-reducible derivatives was determined based on cell viability assays using alamarBlue® (Invitrogen). In short, HT29 and HCT116 were seeded in 96-well plates and allowed to attach overnight. On the following day, the plates were exposed to normoxia or anoxia and medium was replaced with pre-incubated normoxic or anoxic DMEM. Compounds were dissolved in DMSO (0.5%, Sigma-Aldrich) and final concentrations were made with pre-incubated anoxic or normoxic DMEM and added to the wells after 24 h of exposure. Cells were exposed to compounds for a total of 2 h, after which the medium was washed off and replaced with fresh medium. Cells were allowed to grow for an additional 72 h under normoxic conditions prior to measurement. Cells were incubated with alamarBlue® for 2 h during normoxic conditions, which corresponds with their metabolic function, a measure for cell viability. Fluorescence was measured using plate reader (FLUOstar Omega, BMG LABTECH, Ortenberg, Germany) using a fluorescence excitation wavelength of 540–580 nm.
(§5) GraphPad Prism (version 5.03, GraphPad Software, San Diego, CA, USA) was used for all statistical analyses. For the cytotoxic compounds, IC50 values were estimated with the curve of the log (inhibitor) vs. normalized response (Variable slope).

[6] = test system: HT29 cells; assay: alamarBlue cell viability assay, HT29; type: cell-based, human; conditions: for IC50: Homo sapiens, HT-29
Method: as §3, §4, §5

[7] = biological target: hCA II (Homo sapiens, UniProt P00918); assay: stopped flow CO2 hydrase assay, hCA II
Method: as §8

[8] = test system: HT29 cells; assay: clonogenic assay, HT29; type: cell-based, human; conditions: HT29, normoxia or anoxia, tested concentrations (10 to 100 μM), 30 min exposure
Method: as §3
(§6) Clonogenic survival HT29 and HCT116 cells were seeded with a high density for CA IX-dependent extracellular acidification. […] These cells were exposed to 23:30 h normoxic or anoxic conditions and 30 min to drugs after which cells were trypsinized and reseeded in triplicate with known cell numbers. Cells were allowed to grow for 9 (HCT116) and 14 (HT29) days to form colonies that were quantified after staining and fixation with 0.4% methylene blue in 70% ethanol. Surviving fractions were calculated and compared to control survival curves produced in the same experiment without compound treatment.

[9] = test system: HCT116 cells; assay: clonogenic assay, HCT116; type: cell-based, human; conditions: HCT116, normoxia or anoxia, tested concentrations (10 to 100 μM), 30 min exposure
Method: as §3, §6

[10] = zebrafish embryo lethality (LC50); type: in vivo; conditions: AB, zebrafish, in vivo, zebrafish embryos from 24 hpf, end of 5 days of exposure
Method: as §1, §2
(§7) The LC50 values for all the three prodrugs were determined using 24-hpf embryos using […] different concentrations for each compound. We used a minimum of 30 zebrafish larvae for each concentration of the compound [28, 30, 36, 42]. The 24-hpf larvae were exposed to different concentrations of the inhibitors that ranged from 20 μM to […]. A dose response curve (DRC) was calculated using the DRM (model fitting function) of the DRC R package. The control group constituted an equal number of larvae not treated with any compound and the larvae that were treated with 1% DMSO. Toxicological evaluation studies were performed in 24-well plates (Corning V R Costar V R cell culture plates). In each well, we placed 1–2 24-hpf embryos in 1 mL of embryonic medium containing a diluted inhibitor. For control groups, 1% DMSO diluted in either embryonic medium or embryonic medium with no chemical compound. A minimum of three sets of experiments were carried out for each prodrug. The mortality of the larvae was checked every 24 h until 5 days after exposure to the prodrugs.

[11] = test system: zebrafish embryos; assay: zebrafish embryo lethality (LC50); type: in vivo
Method: as §1, §2, §7

[12] = test system: zebrafish larvae; conditions: 100 μM; cited from earlier work
[13] = KI hCA I, mean from 3 different assays
[14] = Homo sapiens, HCT-116, HCT116, anoxia, read-out: IC50A
[15] = Homo sapiens, HCT-116, HCT116, normoxia, read-out: IC50N
[16] = HT29, anoxia, 2 h exposure, 72 h regrowth, read-out: IC50A
[17] = HT29, normoxia, 2 h exposure, 72 h regrowth, read-out: IC50N

Compound	Ki [1]	adverse effects on observable phenotypic parameters of the larvae [2]	Ki [3, 13]	IC50 [5, 14]	IC50 [5, 15]	IC50 [6, 16]	IC50 [6, 17]	Ki [7]	Selectivity Ratio KI hCA II/KI hCA IX [1]	other results
Cn1c(COC(=O)NCCc2ccc(S(N)(=O)=O)cc2)cnc1[N+](=O)[O-] [Compound 1b, (1-methyl-2-nitro-1H-imidazol-5-yl) methyl (4-sulfamoylphenethyl) carbamate]	0.0076 µM	minimal or no adverse effects	0.167 µM	59.3 µM	149 µM	204 µM	> 500 µM	0.0306 µM		swim bladder development ([2]; 1000 μM): absence of a swim bladder; phenotypic abnormalities ([2]; zebrafish larvae, 1 mM): no or minimal phenotypic abnormalities; swim pattern [4]: did not induce phonotypic abnormalities in the larvae as well as abnormal or ataxic swim movement; IC50 ([5]; HCT116, anoxia, read-out: IC50A): 59.4 µM; HCR (IC50N/IC50A) ([6]; HT29, hypoxia selectivity cytotoxicity ratio): >2.44; IC50N ([6]; HT29, normoxia, 2 h exposure, 72 h regrowth): no detectable cytotoxicity; clonogenic cell survival [8]: did not reduce clonogenic cell survival; clonogenic cell survival [9]: did not reduce clonogenic cell survival; LC50 [10]: ~1400 µM; mortality of the larvae ([11]; 1 mM, end of 5 days of exposure): did not cause any mortality; also recorded: no mortality observed
Cc1ncc([N+](=O)[O-])n1CCOC(=O)NCc1ccc(S(N)(=O)=O)cc1 [Compound 2c, 2-(2-methyl-5-nitro-1H-imidazol-1-yl) ethyl (4-sulfamoylbenzyl) carbamate]	0.0141 µM		0.0023 µM	> 500 µM	> 500 µM	> 500 µM	> 500 µM	0.004 µM	0.28	
Cc1ncc([N+](=O)[O-])n1CCNS(N)(=O)=O [DTP348]										neurotoxic effect [12]: induced a neurotoxic effect; swim pattern [12]: ataxic movement pattern
NS(=O)(=O)c1ccc(CNC(=O)OCCNC(=O)c2cc([N+](=O)[O-])ccc2N(CCCl)CCCl)cc1 [Compound 3c, 2-(2-(bis(2-chloroethyl)amino)-5-nitrobenzamido) ethyl (4-sulfamoylbenzyl)carbamate]	0.0887 µM		2.18 µM	> 500 µM	> 500 µM	> 500 µM	> 500 µM	0.0837 µM	0.94	
Cc1ncc([N+](=O)[O-])n1CCOC(=O)NCCc1ccc(S(N)(=O)=O)cc1 [Compound 2b, 2-(2-methyl-5-nitro-1H-imidazol-1-yl) ethyl (4-sulfamoylphenethyl) carbamate]	0.0121 µM		0.0037 µM	> 500 µM	> 500 µM	> 500 µM	> 500 µM	0.0043 µM	0.35	
NS(=O)(=O)c1ccc(CCNC(=O)OCc2ccc([N+](=O)[O-])o2)cc1 [Compound 4b, (5-nitrofuran-2-yl)methyl (4-sulfamoylphenethyl) carbamate]	0.0057 µM	adverse effect on hatching, swim bladder development, the utilization of the yolk sac, and the shape of the body and induced pericardial edema	0.084 µM and 0.0838 µM					0.0155 µM	2.72	swim bladder development ([2]; 250 μM): absence of a swim bladder; phenotypic defects ([2]; zebrafish larvae): phenotypic defects, such as edema and the absence of a swim bladder; LC50 [10]: ~500 µM; mortality of the larvae ([11]; 500 μM): significant mortality
(5-nitrothiophen-2-yl)methyl(4-sulfamoylphenethyl)carbamate [Compound 5b]		adverse effect on hatching, swim bladder development, the utilization of the yolk sac, and the shape of the body and induced pericardial edema							1.31	Ki ([1]; read-out: KI hCA IX, stopped flow CO2 hydrase assay, mean from 3 different assays): 0.0151 µM; edema ([2]; as early as 2 days post exposure): induced edema; phenotypic defects ([2]; zebrafish larvae): phenotypic defects, such as edema and the absence of a swim bladder; Ki ([3]; read-out: KI hCA I, mean from 3 different assays): 0.0647 µM; Ki ([7]; read-out: KI hCA II, stopped flow CO2 hydrase assay, mean from 3 different assays): 0.0198 µM
NS(=O)(=O)c1ccc(CCNC(=O)OCCNC(=O)c2cc([N+](=O)[O-])ccc2N(CCCl)CCCl)cc1 [Compound 3b, 2-(2-(bis(2-chloroethyl)amino)-5-nitrobenzamido) ethyl (4-sulfamoylphenethyl) carbamate]	0.0323 µM		0.083 µM	97.3 µM	267 µM	> 500 µM	> 500 µM	0.0031 µM	0.09	HCR (IC50N/IC50A) ([5]; HCT116, hypoxia selectivity cytotoxicity ratio): 2.7 and 2.74; cytotoxicity ([6]; HT29, normoxia and anoxia, tested concentrations): no cytotoxicity
